Ends that are not written are not given here. Peptide text beside a SMILES is read from it. * marks the point of attachment. fluorescein = fluorescein group attached to the lysine side chain; Benzoyl(4-Br) = O=C(c1ccc(Br)cc1)*; Myristoyl = CCCCCCCCCCCCCC(=O)*; Bz = O=C(c1ccccc1)*
Tests used:
[1] = test system: AsPC1 cells; assay type: cell-based, human; settings: 50-200 μM, 48 h-96 h (Example 6)
Protocol: (§1) MDA231-W and AsPC1 cells were cultured in RPMI 1640 media supplemented with 10% fetal bovine serum (FBS), 5% L-Glutamine, and 1% antibiotics (penicillin-streptomycin purchased from Invitrogen, Carlsbad, Calif.). Cells were maintained at 37° C. in an atmosphere containing 95% air-5% CO2 (v/v). Cells were then incubated with different doses of GIPC inhibitor peptides (50-200 μM) for different time (48 h to 96 h). MDA-231 WT (4×10^4) and AsPC1 cells (2×10^4) were seeded in 24-well plates, cultured for 1 d in RPMI 1640 medium supplemented with 10% FBS, 5% L-Glutamine, and 1% antibiotics. Cells were then incubated with GIPC inhibitor peptides in a time dependent (48 h-96 h) and dose dependent manner (50-200 μM). After certain time of incubation, 1 μCi [^3H]-thymidine was added and proliferation assay performed as previously described. Experiments were repeated at least thrice and in triplicate.

[2] = test system: MDA-MB-231-WT cells; assay: Apoptosis assay (annexin/PI); assay type: cell-based; settings: 50-200 μM
Protocol: (§2) MDA231-WT and AsPC1 ells were seeded into 6-well plates at a density of 4×10^5/2 ml of RPMI medium per well and grown overnight. Next day cells were treated with GIPC inhibitor peptides in a time dependent (48 h-96 h) and dose dependent manner (50-200 μM). After treatment with definite time, cells were extensively washed with PBS and tested with the Annexin V-FITC Apoptosis Detection Kit (Biovision, Cat. No. #K101-100) per the manufacturer's instructions.

[3] = test system: MDA-MB-231-WT breast cancer cells; assay type: cell-based; settings: 50-200 μM, 48 h-96 h (Example 6)
Protocol: as §1

[4] = test system: AsPC1 cells; assay: Apoptosis assay (annexin/PI); assay type: cell-based, human; settings: 50-200 μM
Protocol: as §2

[5] = test system: AsPC1 cells; assay: Cellular localization of fluorescein-tagged analogs (confocal); assay type: cell-based, human
Text: Furthermore, the cellular localization of both CR1023 and CR1166 was investigated in AsPC1 cells using their fluorescein-tagged analogs CR1171 and CR1173 (FIG. 24). CR1172, the fluorescein-tagged analog of CR1164 was used as a control. The green (for fluorescein) and blue (for DAPI) fluorescent microscopy images were collected for AsPC1 cells treated with peptides CR1171, CR1172 and CR1173 using a LSM 510 confocal laser scan microscope. The presence of green fluorescence in FIGS. 24d, -g, -j indicated the internalization of CR1171, CR1172 and CR1173. Untreated AsPC1 cells were devoid of the green fluorescent signal.

[6] = test system: MIAPaCa2 pancreatic cancer cells; assay: Subcutaneous MIAPaCa2 tumor, intratumoral peptide for 27 days; assay type: in vivo, nude mice; settings: whole course of treatment
Protocol: When the tumor reached about 5 mm-15 mm in diameter after subcutaneous transplantation of MIAPaCa2 cells (n=10 treatment, n=10 control) into the mouse right flank, mice were treated with 10 mM of peptide for 27 days dissolved in DMSO. The peptide was applied directly into the tumor. The control group was treated with phosphate buffered saline solution alone.
HE staining and immunostaining for Ki67 (n=6 treatment, n=7 control) was performed as described by the manufacturer. For evaluation the Zeiss Axioplan 2 microscope was used. Photos are made with Zeiss Axiocam. For photos 40× objectives were used. Statistical Analysis. Data are presented as means and differences in means with 95% confidence intervals for the differences. Tests for statistical differences were performed using t-tests and Mann-Whitney tests and Wilcoxon tests. For the in vivo experiments, at least 10 mice were used each group. This number was derived by power analysis to detect a 50% reduction in tumor size, with a beta error of 3%. Because the overall sample size was small and outcome variables could have a non-normal distribution, the non-parametric Mann-Whitney test was used to detect statistical significant differences in each group. P values less than 0.05 were considered to be significant. The significance of the tumor take rates was calculated by using a Wilcoxon-test. […]

| Molecule | inhibition of cell proliferation [1] | induction of apoptosis [2] | inhibition of cell proliferation [3] | induction of apoptosis [4] | cellular localization [5] | internalization (green fluorescence) [5] | toxicity during treatment ([6]; listed as GIPC-PDZ-targeting peptide) | toxicity during treatment ([6]; listed as PDZ domain inhibitor) |
| --- | --- | --- | --- | --- | --- | --- | --- | --- |
| My-SESPSASQ (Myristoyl-SESPSASQ) [CR2055] | no effect | no effect | no effect | no effect |  |  |  |  |
| My-PSQSK(4-Br-ben)SEA (Myristoyl-PSQSK(Benzoyl(4-Br))SEA) [CR1170] |  | no effect |  | no effect |  |  |  |  |
| My-SPSASK(4-Br-ben)SQ (Myristoyl-SPSASK(Benzoyl(4-Br))SQ) [CR2059] | very little effect | no effect | very little effect | no effect |  |  |  |  |
| My-K(FI)PSQSK(ben)SK(ben)A (Myristoyl-K(fluorescein)PSQSK(Bz)SK(Bz)A) [CR1172] |  |  |  |  | more dispersely localized | internalization |  |  |
| My-PSQSSSK(4-Br-ben)A (Myristoyl-PSQSSSK(Benzoyl(4-Br))A) [CR1162] | almost no or little effect |  | almost no or little effect |  |  |  |  |  |
| CCCCCCCCCCCCCC(=O)N1CCC[C@H]1C(=O)N[C@@H](CO)C(=O)N[C@@H](CCC(N)=O)C(=O)N[C@@H](CO)C(=O)N[C@@H](CO)C(=O)N[C@@H](CO)C(=O)N[C@@H](CCC(=O)O)C(=O)N[C@@H](C)C(=O)O [PSQSSSEA, P-S-Q-S-S-S-E-A] (Myristoyl-PSQSSSEA-OH) |  |  |  |  |  |  | without showing toxicity | did not show any toxicity |
| My-LLQGPSQSSSEA (Myristoyl-LLQGPSQSSSEA) [SEQ ID NO: 22] | significant inhibitions | significant induction of apoptosis | significant inhibitions | significant induction of apoptosis |  |  |  |  |
| My-K(FI)PSQSSSEA (Myristoyl-K(fluorescein)PSQSSSEA) [CR1171] |  |  |  |  | more dispersely localized | internalization |  |  |
| My-PSQSK(ben)SK(ben)A (Myristoyl-PSQSK(Bz)SK(Bz)A) [CR1164] | almost no or little effect | no effect | almost no or little effect | no effect |  |  |  |  |
| My-K(FI)PSQSK(4-Br-ben)SK(4-Br-ben)A (Myristoyl-K(fluorescein)PSQSK(Benzoyl(4-Br))SK(Benzoyl(4-Br))A) [CR1173] |  |  |  |  | localized on the membrane | internalization |  |  |
